Laboratory results: the supplement of paper PMC10331698
± gives the standard deviation of the averaged measurements.

Assays:
Assay in all cases: level (log10 ratio to DMSO vehicle control); higher = higher biomarker level / cell amount than vehicle control
[1] = compound: C=C(C)C(=O)OCCC(F)(F)C(F)(F)C(F)(F)C(F)(F)C(F)(F)C(F)(F)F [6:2 Fluorotelomer methacrylate]; conditions: in DMSO
Experimental: (§1)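 BioMAP Diversity Plus panel of 12 human primary cell co-culture systems (3C, 4H, LPS, SAg, BT, BF4T, BE3C, CASM3C, HDF3CGF, KF3CT, MyoF, Mphg). Compounds were added 1 h before stimulation and left for 24 h (MyoF 48 h; BT 72 h for soluble read-outs or 6 d for IgG). Biomarkers were read by ELISA, cytotoxicity by SRB, PBMC viability and proliferation by Alamar Blue. Each well value was divided by the mean of 8 DMSO control wells on the same plate and log10 transformed; duplicate blinded samples were tested at 4 concentrations.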

[2] = compound: C=CC(=O)OCC(F)(F)C(F)(F)C(F)(F)COC(=O)C=C [1H,1H,5H,5H-Perfluoro-1,5-pentanediol diacrylate]; conditions: 6700 nM; in DMSO
Experimental: as §1

[3] = compound: COC(=O)C(F)(F)C(F)(F)OC(F)(C(F)(F)F)C(F)(F)OC(F)=C(F)F [Methyl perfluoro(3-(1-ethenyloxypropan-2-yloxy)propanoate)]; conditions: in DMSO
Experimental: as §1

[4] = compound: FC(F)(F)C(F)(F)C(F)(F)C(F)(F)C(F)(F)C(F)(F)C(F)(F)I [1-Iodopentadecafluoroheptane]; conditions: in DMSO
Experimental: as §1

[5] = compound: FC(F)(F)C(F)(F)C(F)(F)C(F)(F)C(F)(F)C(F)(F)CC1CO1 [3-(Perfluorohexyl)-1,2-epoxypropane]; conditions: in DMSO
Experimental: as §1

[6] = compound: FC(F)(F)C(F)(F)C(F)(F)CC1CO1 [1H,1H-Heptafluorobutyl epoxide]; conditions: in DMSO
Experimental: as §1

Heptafluorobutyl iodide = compound: FC(F)(F)C(F)(F)C(F)(F)CI [Heptafluorobutyl iodide]; conditions: in DMSO
Experimental: as §1

[7] = compound: FC(F)(F)C(F)(F)CNCC(F)(F)C(F)(F)F [Bis(1H,1H-perfluoropropyl)amine]; conditions: in DMSO
Experimental: as §1

Octafluoroadipamide = compound: NC(=O)C(F)(F)C(F)(F)C(F)(F)C(F)(F)C(N)=O [Octafluoroadipamide]; conditions: in DMSO
Experimental: as §1

Nonafluoropentanamide = compound: NC(=O)C(F)(F)C(F)(F)C(F)(F)C(F)(F)F [Nonafluoropentanamide]; conditions: in DMSO
Experimental: as §1

[8] = compound: NC(=O)C(F)(F)C(F)(F)C(F)(F)C(F)F; conditions: in DMSO
Experimental: as §1

[9] = compound: NS(=O)(=O)C(F)(F)C(F)(F)C(F)(F)C(F)(F)C(F)(F)C(F)(F)F [Perfluorohexanesulfonamide]; conditions: in DMSO
Experimental: as §1

[10] = compound: O=C(O)C(F)(F)C(F)(F)C(F)(F)C(F)(F)C(F)(F)C(F)(F)C(F)(F)C(F)(F)C(F)(F)C(F)F [11-H-Perfluoroundecanoic acid]; conditions: in DMSO
Experimental: as §1

[11] = compound: O=C(O)C=CC(F)(C(F)(F)F)C(F)(F)F [3-(Perfluoroisopropyl)-2-propenoic acid]; conditions: in DMSO
Experimental: as §1

[12] = compound: O=S(=O)(Cl)C(F)(F)C(F)(F)C(F)(F)C(F)(F)C(F)(F)C(F)(F)C(F)(F)C(F)(F)F [Perfluoro-1-octanesulfonyl chloride]; conditions: in DMSO
Experimental: as §1

[13] = compound: O=S(=O)(F)C(F)(F)C(F)(F)C(F)(F)C(F)(F)C(F)(F)C(F)(F)C(F)(F)C(F)(F)F [Perfluorooctanesulfonyl fluoride]; conditions: in DMSO
Experimental: as §1

[14] = compound: O=S(=O)(O)C(F)(F)C(F)(F)C(F)(F)C(F)(F)C(F)(F)C(F)(F)C(F)(F)C(F)(F)C(F)(F)C(F)(F)F [Sodium perfluorodecanesulfonate]; conditions: in DMSO
Experimental: as §1

[15] = compound: O=S(=O)(O)CCC(F)(F)C(F)(F)C(F)(F)C(F)(F)C(F)(F)C(F)(F)F [6:2 Fluorotelomer sulfonic acid]; conditions: in DMSO
Experimental: as §1

Hexafluoroamylene glycol = compound: OCC(F)(F)C(F)(F)C(F)(F)CO [Hexafluoroamylene glycol]; conditions: in DMSO
Experimental: as §1

## 3C:CD54/ICAM-1
[1]; 6700 nM
  level (log10): -0.003 ± 0.0042
[1]; 20000 nM
  level (log10): -0.014 ± 0.011
[1]; 60000 nM
  level (log10): 0.0025 ± 0.015
[2]
  level (log10): -0.03 ± 0.014
[3]; 6700 nM
  level (log10): -0.02 ± 0.0042
[3]; 20000 nM
  level (log10): -0.0045 ± 0.016
[4]; 6700 nM
  level (log10): -0.0115 ± 0.00071
[4]; 20000 nM
  level (log10): 0.014 ± 0.016
[5]; 6700 nM
  level (log10): -0.0115 ± 0.00071
[5]; 20000 nM
  level (log10): -0.0275 ± 0.015
[5]; 60000 nM
  level (log10): -0.015 ± 0.011
[6]; 6700 nM
  level (log10): -0.02 ± 0.0071
[6]; 20000 nM
  level (log10): -0.0135 ± 0.005
[6]; 60000 nM
  level (log10): -0.003 ± 0.0057
Heptafluorobutyl iodide; 6700 nM
  level (log10): -0.0075 ± 0.015
Heptafluorobutyl iodide; 20000 nM
  level (log10): -0.0035 ± 0.0092
Heptafluorobutyl iodide; 60000 nM
  level (log10): -0.0055 ± 0.005
[7]; 6700 nM
  level (log10): 0 ± 0.016
[7]; 20000 nM
  level (log10): 0.001 ± 0.0085
[7]; 60000 nM
  level (log10): 0.006 ± 0.0014
Octafluoroadipamide; 6700 nM
  level (log10): -0.0125 ± 0.0021
Octafluoroadipamide; 20000 nM
  level (log10): -0.019 ± 0.0071
Octafluoroadipamide; 60000 nM
  level (log10): -0.006 ± 0.0085
Nonafluoropentanamide; 6700 nM
  level (log10): -0.0155 ± 0.005
Nonafluoropentanamide; 20000 nM
  level (log10): -0.0025 ± 0.0092
Nonafluoropentanamide; 60000 nM
  level (log10): 0.005 ± 0.021
[8]; 6700 nM
  level (log10): -0.0095 ± 0.013
[8]; 20000 nM
  level (log10): -0.0115 ± 0.019
[8]; 60000 nM
  level (log10): -0.0095 ± 0.025
[9]; 6700 nM
  level (log10): 0.013 ± 0.011
[9]; 20000 nM
  level (log10): 0.002 ± 0.0085
[9]; 60000 nM
  level (log10): 0.0065 ± 0.0078
[10]; 6700 nM
  level (log10): -0.012 ± 0.023
[10]; 20000 nM
  level (log10): -0.019 ± 0.0014
[11]; 6700 nM
  level (log10): -0.013 ± 0.033
[11]; 20000 nM
  level (log10): -0.0185 ± 0.025
[11]; 60000 nM
  level (log10): -0.003 ± 0.013
[12]; 6700 nM
  level (log10): -0.027 ± 0.0099
[12]; 20000 nM
  level (log10): -0.0215 ± 0.023
[12]; 60000 nM
  level (log10): -0.0045 ± 0.0078
[13]; 6700 nM
  level (log10): -0.0025 ± 0.011
[13]; 20000 nM
  level (log10): -0.007 ± 0.0042
[13]; 60000 nM
  level (log10): 0.005 ± 0.0028
[14]; 1500 nM
  level (log10): 0.0115 ± 0.005
[14]; 4400 nM
  level (log10): -0.0015 ± 0.00071
[14]; 13000 nM
  level (log10): 0.0115 ± 0.021
[14]; 40000 nM
  level (log10): 0.0145 ± 0.0078
[15]; 6700 nM
  level (log10): -0.012 ± 0.021
[15]; 20000 nM
  level (log10): -0.006 ± 0.021
[15]; 60000 nM
  level (log10): -0.004 ± 0.011
Hexafluoroamylene glycol; 6700 nM
  level (log10): -0.01 ± 0.0085
Hexafluoroamylene glycol; 20000 nM
  level (log10): -0.0325 ± 0.005
Hexafluoroamylene glycol; 60000 nM
  level (log10): -0.016 ± 0.023
